By EC50 is commonly meant the concentration at which the effect is half-maximal.

For 93 molecules, EC50 results are on record in PubChem BioAssay AID1902 (Broad Institute, 2009).

Calls of active or inactive are those of the source.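 Rule for the calls: active = EC50 no more than a set limit of log units above the highest dose; inactive = the rest.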

The assay addresses S. pyogenes SKKanGAS, kanamycin survival, BacTiterGlo, 6 h. The assay can be described thus: S. pyogenes SKKanGAS kanamycin growth inhibitors – SKKanGAS strain, luminescence, dose confirmation, streptokinase promoter inhibitor project, dose response (AID 1902).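 Note: lower survival reflects blocked streptokinase promoter driving kanamycin resistance gene.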
On to `CN(C)[C@@H]1C(=O)C(C(N)=O)=C(O)[C@@]2(O)C(=O)C3=C(O)c4c(O)cccc4[C@@](C)(O)C3C[C@@H]12` (stereo partly drawn), for which the EC50 is 0.096 µM. With `CCCCC1CCC(c2nc(-c3ccccn3)no2)CC1` (stereo not drawn), the EC50 was 8.61 µM. As to `Cc1n[nH]c(=O)c2c(NC(=O)CSc3nnnn3-c3ccccc3)oc(C)c12`, the EC50 was > 15 µM (inactive).

For the molecule `Cc1cc(C)c2nc(SCCc3ccccc3)nc(C)c2c1`, the 50% effective concentration (EC50) was 5.85 µM. Take `Cc1ncc(CO)c(/C=N/NC(=S)Nc2ccc(Cl)c(Cl)c2)c1O`: the EC50 is 5.9 µM. With `NC(N)=N/N=C/c1ccc(OCc2ccccc2)c(OCc2ccccc2)c1`, the 50% effective concentration (EC50) was 6.82 µM. With `COc1cc2c3c(c1)/C(=C1/SC(=S)NC1=O)C(=O)N3C(C)(C)C=C2C`, the EC50 is 1.1 µM.

As to `Fc1ccc(-n2cc(-c3ccccc3)c3c(=S)nc[nH]c32)cc1`, the EC50 is 8.7 µM. Turning to `CC(C)=CCc1c2c(c(O)c3c(=O)c4c(oc13)-c1cc(O)c(O)cc1OC4C=C(C)C)C=CC(C)(C)O2` (stereo not drawn), the half-maximal effective concentration (EC50) is 1.88 µM.

`Cc1ccc(C(NC(=O)NC(C)c2ccccc2)C(Cl)(Cl)Cl)cc1F` (stereo not drawn): the EC50 is 6.41 µM.

As to `Oc1cccc(/C=N/N(Cc2ccccc2)c2ccccc2)c1`, the 50% effective concentration (EC50) was 6.02 µM. Regarding `COCCn1c(SCC(=O)Nc2ccc(F)cc2)nc2c([nH]c3ccccc32)c1=O`, the EC50 is > 15 µM (inactive).

Turning to `S=C(NCCC(c1ccccc1)c1ccccc1)Nc1cccc(Cl)c1`, the 50% effective concentration (EC50) was 5.82 µM. Then `Clc1ccc(-c2nnnn2-c2ccc(Cl)c(Cl)c2)cc1Cl`, with 8.09 µM; and `CCOc1cccc(/C=N/Nc2ccc(S(=O)(=O)N(CC)CC)cn2)c1O`, with 2.94 µM; and `CN1CCN(C(c2ccc(Cl)cc2)c2cc(Cl)c3cccnc3c2O)CC1` (stereo not drawn), with 1.46 µM. `O=c1c2cc(-c3ccccc3)sc2nc2n1CCC2`: the concentration giving a half-maximal response (EC50) is 7.67 µM. As to `Cc1ccc(-c2csc(-c3c[nH]c4ccccc34)n2)c(C)c1`, the EC50 was 6.03 µM. In the case of `Cc1nn2c(COc3ccc(NC(=O)c4ccccc4)cc3)nnc2c2ccccc12` it was 0.603 µM; in that of `CC(=O)C(=Nc1ccc(Cl)cc1Cl)NNc1cccc(Cl)c1`, 5.07 µM. In the case of `COc1ccc(C(=O)Nc2cccc(-c3ccc(N4CCOCC4)nn3)c2)cc1` it was > 15 µM (inactive); in that of `Cc1ccccc1N1CCN(S(=O)(=O)c2nnc(NC(=O)c3ccco3)s2)CC1`, 4.46 µM.

In the case of `CC(=O)NC[C@H]1CN(c2ccc(N3CCOCC3)c(F)c2)C(=O)O1`, the concentration for a half-maximal effect (EC50) is 0.158 µM. Turning to `Oc1c(Br)cc(Br)cc1/C=N/NC(=S)N[C@H]1CC2C=CC1C2` (stereo partly drawn), the 50% effective concentration (EC50) was 0.15 µM. In the case of `CCCCCCCCCCCC(=O)c1c(O)cccc1O`, the half-maximal effective concentration (EC50) is 1.58 µM. For `Oc1ccc(/C=N/n2c3ccccc3c3ccccc32)cc1`, the EC50 was 5.79 µM. `NCCCn1c(C(=O)c2cc(Cl)c(N)c(Cl)c2)c2ccc([N+](=O)[O-])cc2[n+]1[O-]`: the EC50 was 4.25 µM. For `COCCCn1c(N)c(C(=O)Nc2ccccc2)c2nc3ccccc3nc21`, the concentration giving a half-maximal response (EC50) is 11.8 µM. As to `Cc1cc(/C=N/n2cnnc2)c(C)n1-c1ccc(OCc2ccc(Cl)cc2Cl)cc1`, the concentration giving a half-maximal response (EC50) is 2.1 µM.

Take `Cc1cccc(C)c1Nc1c(-c2ccccn2)nc2ccccn12`: the EC50 was 6.67 µM. For `Cc1ccc(-c2nn(-c3ccccc3)cc2/C=N/NC(=O)CSc2nnc(C)n2-c2ccccc2)cc1`, the concentration for a half-maximal effect (EC50) is 9.84 µM. Turning to `CC(=O)[C@@]1(O)C(C)CC2C3C=C(C)C4=Cc5c(cnn5-c5ccccc5)C[C@]4(C)C3C(O)C[C@@]21C` (stereo partly drawn), the concentration for a half-maximal effect (EC50) is 3.56 µM.

For `O=[N+]([O-])c1cc(S(=O)(=O)Nc2ccccc2)ccc1N1CCN(c2ccccc2)CC1`, the concentration giving a half-maximal response (EC50) was 7.21 µM. `Cc1ccc(CN2CN(S(=O)(=O)c3cccs3)c3nc4ccccc4nc32)cc1`: the EC50 is 7.74 µM. In the case of `CCCCn1c(/C=N/Nc2nc3ccccc3[nH]2)nc2ccccc21`, the EC50 is 1.17 µM. For `OC(CN=c1sc2ccccc2n1CC(O)COc1ccccc1)COc1ccccc1` (stereo not drawn), the EC50 was 6.28 µM.

Turning to `COc1cc2nc(=S)n3[nH]c(COc4ccccc4C)nc3c2cc1OC`, the EC50 was 2.28 µM. Then `CN(C(=O)CSc1nc(-c2ccc(C(C)(C)C)cc2)c(C#N)c(=O)[nH]1)C1CCCCC1`, with 1.36 µM.

`Cc1cc(C(=O)N/N=C/c2cc(N=Nc3ccccc3)ccc2O)n[nH]1`: the EC50 is 2.02 µM. `Nc1c(-c2ccccc2)c(CSc2nc3ccccc3[nH]2)nn1-c1cccc(Cl)c1`: the EC50 is 1.51 µM. In the case of `COc1ccc(/C=N/NC(=O)Cc2csc(Nc3cccc(C(F)(F)F)c3)n2)cc1C` it was 3.95 µM; in that of `CN1CCN(C(=O)C(=O)c2cn(CC(=O)N3CCCC3)c3ccccc23)CC1`, > 15 µM (inactive). For the molecule `CCCN(Cc1ccco1)S(=O)(=O)c1ccc(OC)c(OC)c1`, the EC50 was > 15 µM (inactive). In the case of `CC(C)(C)c1ccc(OCC(=O)N2CCN(c3ncccn3)CC2)cc1` it was > 15 µM (inactive); in that of `CCOC(=O)c1csc(NC(=O)c2ccc3c(c2)OCCO3)n1`, > 15 µM (inactive); in that of `O=[N+]([O-])c1ccc(S(=O)(=O)Nc2ccc(-c3csc(-c4ccccc4)n3)cc2)cc1`, 2.79 µM. Take `COc1ccc(-c2nc(NC(C)=O)sc2-c2ccc(OC)cc2)cc1`: the EC50 is 4.05 µM.

As for `COc1ccc2ccc3c(c2c1)N=C[C@]1(O3)N(C)c2ccccc2C1(C)C`, the EC50 is 1.41 µM. In the case of `Cc1ccc(Cc2cnc(N3C(=N)SC(c4ccccc4)C3=O)s2)cc1` (stereo not drawn), the half-maximal effective concentration (EC50) is 0.105 µM. For `O=C(CCn1cnc(-c2ccccc2)c1-c1ccccc1)N/N=C/c1ccccc1O`, the EC50 is 0.522 µM. In the case of `Cc1cc(N/N=C/c2c(O)ccc3ccccc23)nc(-c2ccccc2O)n1` it was 0.257 µM. Regarding `COc1cccc(C(=O)N2C(C(=O)O)CSC2c2ccccc2Cl)c1` (stereo not drawn), the EC50 was > 15 µM (inactive).

Take `O=C(N/N=C/c1ccccc1O)NC12CC3CC(CC(C3)C1)C2`: the EC50 was 8.68 µM. Then `CN(C)CCOc1ccc(/C(=C(/CCCl)c2ccccc2)c2ccccc2)cc1`, with 4.95 µM; and `O=[N+]([O-])c1cc(Br)c(O)c(/C=N/Nc2nnnn2-c2cccc3ccccc23)c1`, with 5.44 µM.

Regarding `COc1ccc(/C=C/C(=O)NC(=S)N2CCN(c3ccccc3OC)CC2)cc1`, the EC50 is > 15 µM (inactive).

Take `O=C(NC(=S)Nc1ccccc1N1CCCCC1)c1ccc(F)cc1Cl`: the 50% effective concentration (EC50) was 3.4 µM. In the case of `Cc1ccc(NC2=C/C(=N\S(=O)(=O)c3cccs3)c3ccccc3C2=O)c(C)c1`, the EC50 is 1.66 µM. As for `Cc1ccc2c(Cl)cc(Cl)c(OCC(=O)NC(C)(C)C)c2n1`, the concentration giving a half-maximal response (EC50) is 3.14 µM.

`O=C(Nc1nnc(-c2ccccc2Cl)o1)c1ccc(S(=O)(=O)N2CCCCCC2)cc1`: the EC50 is 0.264 µM. Take `Cc1ccc(/C=C2/Sc3ccc(C(=O)N4CCN(C)CC4)cc3NC2=O)cc1`: the half-maximal effective concentration (EC50) is 13.4 µM. Consider `CC1Oc2cc3oc4c(O)c5c(cc4c(=O)c3c(O)c2C1(C)C)C=CC(C)(C)O5` (stereo not drawn), for which the EC50 is 2.48 µM.

Take `COc1ccc(Oc2nc(-c3ccccn3)nc3ccccc23)cc1`: the EC50 was 6.49 µM. Regarding `COc1cc(/C(C)=C/c2ccccc2)c2c(c1)oc1ccccc12`, the EC50 was 4.04 µM. With `CCc1nnc(NS(=O)(=O)c2ccc(NCc3cc(Cl)cc(Cl)c3O)cc2)s1`, the EC50 is 14.2 µM.

For `CC1(C)OC(C(O)(c2ccccc2)c2ccccc2)[C@@H](C(O)(c2ccccc2)c2ccccc2)O1` (stereo partly drawn), the EC50 was 3.36 µM. For the molecule `COc1ccc(OCC(=O)NNC(=S)NC(=O)C2CC2)cc1`, the concentration giving a half-maximal response (EC50) was 4.11 µM.

`CCN1/C(=C\c2ccc3cc(C)ccc3[n+]2CC)Sc2cc(C)c(C)cc21`: the half-maximal effective concentration (EC50) is 4.23 µM. In the case of `O=C(NCc1ccc2c(c1)OCO2)Nc1ccc(F)cc1` it was > 15 µM (inactive).

`COc1cc(OC)c2cc(C(=O)N/N=C/c3ccccc3O)[nH]c2c1`: the concentration for a half-maximal effect (EC50) was 1.1 µM. Consider `Cc1cc(C)c[n+](C2=C([O-])c3ccccc3C(=O)/C2=N\S(=O)(=O)c2cccs2)c1`, for which the concentration for a half-maximal effect (EC50) is 1.85 µM. Consider `CCOc1ccc(/C=N/NC(=S)NC2CC3CC2C2C=CCC32)cc1` (stereo not drawn), for which the half-maximal effective concentration (EC50) was 5.48 µM. With `COc1cc([N+](=O)[O-])cc(/C=N/NC(=O)c2cccnc2)c1O`, the concentration for a half-maximal effect (EC50) is 2.64 µM. As for `Fc1cccc2sc(Nc3nc4cc5c(cc4s3)OCO5)nc12`, the EC50 is > 15 µM (inactive). `COc1cccc(C(=O)NC(=S)Nc2ccccc2N2CCCCC2)c1`: the EC50 is > 15 µM (inactive).

As for `CCCCN(CCCC)C(=S)N/N=C/c1c(C)[nH]n(-c2ccccc2)c1=O`, the concentration giving a half-maximal response (EC50) was 0.399 µM. With `Cc1ccsc1C1C=C(c2cccc(Br)c2)Nc2ncnn21` (stereo not drawn), the concentration for a half-maximal effect (EC50) is 14.2 µM. For the molecule `COc1ccc(-n2nc(C(=O)c3cccs3)cc(-c3nc4ccccc4[nH]3)c2=N)cc1`, the EC50 is 1.2 µM. Consider `Cc1ccc(N=Nc2ccc(O)c3ncccc23)cc1`, for which the EC50 is 0.098 µM. With `O=S(=O)(c1ccc(F)cc1)c1nc(-c2ccccc2)oc1N1CCOCC1`, the EC50 is > 15 µM (inactive).

As to `CCN1CCN(c2cc3c(cc2F)c(=O)c(C(=O)O)cn3C2CC2)CC1`, the half-maximal effective concentration (EC50) was 1.29 µM. In the case of `Cc1cccc(N=C2NN=C(c3c(C)[nH]c4ccccc34)CS2)c1` it was 3.02 µM; in that of `CC(C)(C)N/N=C1\CC(c2ccccc2)Oc2ccccc21` (stereo not drawn), 3.03 µM; in that of `Cc1cc(NC(=O)/C=C/c2ccccc2Cl)n(-c2nc3ccccc3[nH]2)n1`, 1.9 µM. `O=c1c2ccccc2nc(COc2ccccc2)n1/N=C/c1cc([N+](=O)[O-])ccc1O`: the EC50 was 1.73 µM.

Take `O=C(CSc1nnc(NC(=O)c2ccccc2[N+](=O)[O-])s1)NC1CCCC1`: the EC50 is > 15 µM (inactive).

As for `C/C(=N/NC(=O)c1cccs1)c1c(C)[nH]n(-c2nc3ccccc3s2)c1=O`, the EC50 is 3.24 µM. Take `O=S(=O)(Nc1cccc2c1CCCC2)c1ccc(Cl)cc1`: the EC50 is 2.92 µM. Turning to `CCOC(=O)c1sc(NC(=O)c2cc(-c3ccccc3C)nc3ccccc23)c(C#N)c1C`, the 50% effective concentration (EC50) was 1.36 µM. In the case of `Cc1ccc(C)c(/C=N/NC(=S)NCCc2ccccc2)c1` it was 4.05 µM. With `COC(=O)[C@@H]1[C@@H](C#N)C2(c3ccccc3-c3ccccc32)N(c2ccc(Cl)cc2)N1C#N`, the EC50 was 9.76 µM.

`O=c1c2cc(Br)ccc2nc(-c2ccc(Cl)cc2)n1O`: the half-maximal effective concentration (EC50) was 1.07 µM. In the case of `Cc1cccc2[nH]c3c(N4CC=C(c5ccc(F)cc5)CC4)ncnc3c12`, the EC50 was 2.14 µM.
